Test systems include COLO 205 colon; NCI/ADR-RES ovarian; EKVX NSCLC; TK-10 renal; A498 renal; PC-3 prostate; HT29 colon; SF-539 CNS; SN12C renal; NCI-H522 lung.
Assay in all cases: NCI-60 cell line screen, 48 h

Drawing on PubChem BioAssay (NCI), this text covers TGI for 16 compounds.

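Results reflect a 48-hour exposure of cells in 96-well plates to compound at five concentrations. TGI: total growth inhibition.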 Some results are limits rather than exact numbers.

For `Nc1nc(Nc2ccc(Cl)cc2)sc1C(=O)c1cccs1`, the TGI was more than 100 µM in the test on COLO 205 colon; more than 100 µM in the test with NCI/ADR-RES ovarian; 69.7 µM in the test on EKVX NSCLC; 36.3 µM in the test on TK-10 renal; 72.9 µM with A498 renal; more than 100 µM in the test with PC-3 prostate. Further, the TGI with HT29 colon was more than 100 µM; with SF-539 CNS, 61 µM; with SN12C renal, 50.6 µM.
Turning to `c1ccc(-c2cnc(-c3ccc(-c4ncc(-c5ccccc5)o4)cc3)o2)cc1`, the TGI in the test with NCI-H522 lung, in the test on COLO 205 colon, in the test on NCI/ADR-RES ovarian, in the test on EKVX NSCLC, with TK-10 renal and in the test on A498 renal was more than 100 µM in each case. Further, the TGI in the test with PC-3 prostate, in the test with HT29 colon and with SN12C renal was more than 100 µM each time.
On to `CCOC(=O)C1(C(=O)OCC)CCCN1C(=O)[C@H](CNC(=O)OC(C)(C)C)NC(=O)OCc1ccccc1`, for which the TGI in the test with COLO 205 colon, with NCI/ADR-RES ovarian, in the test on EKVX NSCLC, with TK-10 renal, with PC-3 prostate and with HT29 colon was more than 100 µM in each case. The TGI with SF-539 CNS and in the test on SN12C renal was more than 100 µM in each case.
Regarding `C[C@]12CC[C@H](O)C=C1CC[C@@H]1[C@@H]2CC[C@]2(C)C(c3ccc(=O)oc3)CC[C@]12O` (stereo not given in full), the TGI came out at 0.0155 µM in the test on NCI-H522 lung; 0.188 µM in the test with COLO 205 colon; 0.0926 µM in the test on NCI/ADR-RES ovarian; 0.145 µM in the test on EKVX NSCLC; 0.081 µM with A498 renal; 0.293 µM in the test with HT29 colon. The TGI in the test on SF-539 CNS was found to be 0.0152 µM; with SN12C renal, 0.0773 µM.
Consider `NC(=O)c1ncn2c1NC(=O)CC2`, for which the TGI with NCI-H522 lung, in the test on COLO 205 colon, in the test with NCI/ADR-RES ovarian, in the test with EKVX NSCLC, with A498 renal and in the test with HT29 colon was more than 100 µM in each case. Further, the TGI in the test with SF-539 CNS and in the test with SN12C renal was more than 100 µM each time.
As for `Cc1cc(/N=C/c2ccc(C#N)cc2)n(-c2ccccc2)n1`, the TGI with NCI-H522 lung, in the test with COLO 205 colon, in the test on NCI/ADR-RES ovarian, in the test with EKVX NSCLC, with TK-10 renal and in the test with PC-3 prostate was more than 100 µM throughout. Moreover, the TGI in the test with HT29 colon, in the test with SF-539 CNS and with SN12C renal was more than 100 µM each time.
Take `O=C(O)CSC(NC(=O)C(C(F)(F)F)C(F)(F)F)(C(F)(F)F)C(F)(F)F`: the TGI in the test with COLO 205 colon, in the test on NCI/ADR-RES ovarian, with EKVX NSCLC, in the test on TK-10 renal, with A498 renal and with PC-3 prostate was more than 100 µM in each case. The TGI with HT29 colon, with SF-539 CNS and with SN12C renal was more than 100 µM throughout.
Regarding `CC(C)(C)OC(=O)C1C(=O)NC(=O)CC1C(COCc1ccccc1)OCc1ccccc1` (stereo not given), the TGI in the test on NCI-H522 lung is 35.8 µM; in the test with EKVX NSCLC, 55.5 µM; in the test with TK-10 renal, more than 100 µM; in the test with PC-3 prostate, 27.2 µM; with HT29 colon, 37.1 µM; in the test on SF-539 CNS it was 40.6 µM.
For `COc1ccccc1N1CCN(CCCNC(=O)c2cc(Cl)c(N)c(Cl)c2)CC1`, the TGI in the test with NCI/ADR-RES ovarian, with EKVX NSCLC, with TK-10 renal, in the test on A498 renal, in the test on HT29 colon and in the test with SF-539 CNS was more than 100 µM throughout. The compound further had a TGI with SN12C renal of more than 100 µM.
As to `COc1cc(CNc2nc3cc(C(F)(F)F)ccc3nc2-c2ccccc2)cc(OC)c1OC`, the TGI is more than 100 µM in the test with NCI-H522 lung; 37.3 µM in the test with COLO 205 colon; 81.8 µM in the test on NCI/ADR-RES ovarian; 50.2 µM with EKVX NSCLC; more than 100 µM in the test with TK-10 renal; more than 100 µM in the test with HT29 colon. Further, the TGI in the test on SF-539 CNS and with SN12C renal was more than 100 µM each time.
On to `O=C1CCc2ccc3c(c21)CC1(Cc2ccccc2C1)C3`, for which the TGI is 92.4 µM in the test on NCI-H522 lung; more than 100 µM in the test on COLO 205 colon; 53.6 µM in the test on NCI/ADR-RES ovarian; 99.3 µM in the test with TK-10 renal; more than 100 µM with PC-3 prostate; 22 µM in the test on HT29 colon. Besides, the TGI in the test with SF-539 CNS and with SN12C renal was more than 100 µM each time.
In the case of `CCOC(=O)[C@@H]1ON2O[C@@H](OC3CCCC3(c3ccccc3)c3ccccc3)C[C@H]3OC(=O)[C@@H]1C32` (stereo not given in full), the TGI was 91.9 µM in the test with NCI-H522 lung; more than 100 µM in the test on COLO 205 colon; more than 100 µM in the test with NCI/ADR-RES ovarian; more than 100 µM in the test on EKVX NSCLC; 43.6 µM with TK-10 renal; more than 100 µM with A498 renal. Also, the figures for the TGI with HT29 colon, in the test on SF-539 CNS and in the test with SN12C renal were 43.1 µM, 68 µM and 80.3 µM, respectively.
For the compound `COc1cc2c(c(O)c1O)-c1ccc(OC)c(=O)cc1C(NC(C)=O)CC2` (stereo not given), the TGI was 6.48 µM with NCI-H522 lung; 12.6 µM in the test with COLO 205 colon; more than 100 µM in the test on EKVX NSCLC; more than 100 µM in the test with TK-10 renal; more than 89.9 µM in the test on A498 renal; more than 70.3 µM with HT29 colon. For the same compound, the TGI in the test with SF-539 CNS is 24 µM; with SN12C renal, more than 80.8 µM.
On to `OCC(O)C(O)C(O)/C=N/Nc1nc(O)c(/C=C2\C=Nc3ccccc32)[nH]1` (stereo not given), for which the TGI with NCI-H522 lung, in the test with COLO 205 colon, in the test with NCI/ADR-RES ovarian, in the test on EKVX NSCLC, in the test on TK-10 renal and in the test with HT29 colon was more than 100 µM throughout. The TGI in the test on SF-539 CNS and in the test with SN12C renal was more than 100 µM in each case.
On to `CCc1nc2cc3cccnc3c(Cl)c2[nH]c1=O`, for which the TGI in the test with NCI-H522 lung, with COLO 205 colon, with NCI/ADR-RES ovarian, in the test on EKVX NSCLC, in the test with TK-10 renal and in the test on A498 renal was more than 100 µM each time. The TGI in the test on PC-3 prostate, with HT29 colon and in the test on SN12C renal was more than 100 µM each time.
For the compound `COC(=O)C1=C(O)C(C(=O)OC)[C@@]2(O)[C@@H](C(=O)OC)[C@H](C)[C@@H](C)[C@@H]1[C@@H]2C(=O)OC` (stereo not given in full), the TGI is 92.2 µM with NCI-H522 lung; more than 100 µM in the test with EKVX NSCLC; more than 100 µM in the test on TK-10 renal; more than 100 µM in the test with A498 renal; more than 100 µM in the test on HT29 colon; more than 100 µM with SF-539 CNS. Besides, in the test on SN12C renal, the TGI is more than 100 µM.
